According to the NIST ThermoML archive (doi:10.1007/s10765-009-0625-z):
Numbers after ± are expanded uncertainties.

How the values were obtained:
[1] = Liquid, Constant-volume piezometry
[2] = xn = mol fraction of the nth substance listed; settings: Liquid

c1ccc2[nH]ccc2c1 [1H-indole]
specific volume [m3/kg], [1]
Settings	323.15 K	333.15 K	343.15 K	353.15 K
100 kPa	0.0009295 ± 2e-07	0.000936 ± 3e-07	0.0009428 ± 3e-07	0.0009499 ± 3e-07
10000 kPa	–	0.0009315 ± 3e-07	0.0009381 ± 3e-07	0.0009449 ± 3e-07
20000 kPa	–	0.0009273 ± 3e-07	0.0009335 ± 3e-07	0.0009402 ± 3e-07
30000 kPa	–	0.0009228 ± 4e-07	0.0009292 ± 4e-07	0.0009358 ± 4e-07
40000 kPa	–	0.0009192 ± 4e-07	0.0009249 ± 4e-07	0.0009313 ± 4e-07
50000 kPa	–	0.0009157 ± 5e-07	0.0009209 ± 5e-07	0.0009273 ± 5e-07
60000 kPa	–	–	0.0009173 ± 6e-07	0.0009231 ± 6e-07
70000 kPa	–	–	0.000914 ± 6e-07	0.0009195 ± 6e-07
80000 kPa	–	–	0.0009103 ± 7e-07	0.0009158 ± 7e-07
90000 kPa	–	–	–	0.0009123 ± 8e-07
100000 kPa	–	–	–	0.0009091 ± 8e-07
110000 kPa	–	–	–	0.0009059 ± 9e-07

c1ccc2[nH]ccc2c1 [1H-indole] + c1ccc(-c2ccccc2)cc1
specific volume [m3/kg], [2], 100 kPa
Settings	303.15 K	313.15 K	323.15 K	333.15 K	343.15 K	353.15 K	363.15 K
x1 = 0.25	–	–	0.0009769 ± 8e-07	0.0009848 ± 9e-07	0.0009924 ± 1e-06	0.001 ± 1.1e-06	0.001009 ± 1.2e-06
x1 = 0.5	0.0009477 ± 6e-07	0.000955 ± 7e-07	0.0009624 ± 8e-07	0.0009698 ± 9e-07	0.000977 ± 1e-06	0.0009848 ± 1e-06	0.0009924 ± 1.1e-06
x1 = 0.75	0.0009328 ± 6e-07	0.0009393 ± 7e-07	0.0009462 ± 7e-07	0.0009538 ± 8e-07	0.0009599 ± 9e-07	0.0009675 ± 1e-06	0.0009747 ± 1.1e-06
x1 = 1	–	–	0.0009295 ± 7e-07	0.000936 ± 8e-07	0.0009428 ± 9e-07	0.0009499 ± 1e-06	–

specific volume [m3/kg], [2], 333.15 K, Constant-volume piezometry
Settings	x1 = 0.25	x1 = 0.5	x1 = 0.75	x1 = 1
100 kPa	0.0009848 ± 3e-07	0.0009698 ± 3e-07	0.0009538 ± 3e-07	0.000936 ± 3e-07
10000 kPa	0.0009792 ± 3e-07	0.0009648 ± 3e-07	0.0009488 ± 3e-07	0.0009315 ± 3e-07
20000 kPa	0.0009737 ± 3e-07	0.0009601 ± 3e-07	0.0009442 ± 3e-07	0.0009273 ± 3e-07
30000 kPa	–	0.0009553 ± 4e-07	0.0009399 ± 4e-07	0.0009228 ± 4e-07
40000 kPa	–	0.0009507 ± 4e-07	0.0009356 ± 4e-07	0.0009192 ± 4e-07
50000 kPa	–	0.0009464 ± 5e-07	0.0009316 ± 5e-07	0.0009157 ± 5e-07
60000 kPa	–	0.0009423 ± 6e-07	0.0009278 ± 5e-07	–
70000 kPa	–	0.0009384 ± 6e-07	0.0009241 ± 6e-07	–
80000 kPa	–	0.0009347 ± 7e-07	0.0009205 ± 7e-07	–
90000 kPa	–	–	0.0009171 ± 8e-07	–
100000 kPa	–	–	0.0009139 ± 8e-07	–
110000 kPa	–	–	0.0009108 ± 9e-07	–
120000 kPa	–	–	0.0009077 ± 1e-06	–
130000 kPa	–	–	0.0009047 ± 1e-06	–
140000 kPa	–	–	0.000902 ± 1.1e-06	–
150000 kPa	–	–	0.0008991 ± 1.2e-06	–
160000 kPa	–	–	0.0008965 ± 1.2e-06	–
170000 kPa	–	–	0.0008939 ± 1.3e-06	–

Cc1ccc2ccccc2c1 [2-methylnaphthalene]
[1]
Settings	specific volume [m3/kg]
303.15 K, 100 kPa	0.001001 ± 9e-07
313.15 K, 100 kPa	0.001009 ± 2e-07
323.15 K, 100 kPa	0.001017 ± 1.2e-06
333.14 K, 100 kPa	0.001025 ± 3e-07
333.15 K, 100 kPa	0.001025 ± 3e-07
333.15 K, 10000 kPa	0.001018 ± 3e-07
333.15 K, 20000 kPa	0.001012 ± 4e-07
333.15 K, 30000 kPa	0.001007 ± 4e-07
333.15 K, 40000 kPa	0.001001 ± 5e-07
333.15 K, 50000 kPa	0.0009961 ± 5e-07
333.15 K, 60000 kPa	0.0009915 ± 6e-07
333.15 K, 70000 kPa	0.0009868 ± 7e-07
333.15 K, 80000 kPa	0.0009826 ± 7e-07
333.15 K, 90000 kPa	0.0009784 ± 8e-07
333.15 K, 100000 kPa	0.0009749 ± 9e-07
343.15 K, 100 kPa	0.001033 ± 3e-07
343.15 K, 10000 kPa	0.001026 ± 3e-07
343.15 K, 20000 kPa	0.00102 ± 3e-07
343.15 K, 30000 kPa	0.001014 ± 4e-07
343.15 K, 40000 kPa	0.001008 ± 5e-07
343.15 K, 50000 kPa	0.001003 ± 5e-07
343.15 K, 60000 kPa	0.0009977 ± 6e-07
343.15 K, 70000 kPa	0.0009932 ± 7e-07
343.15 K, 80000 kPa	0.0009885 ± 8e-07
343.15 K, 90000 kPa	0.0009843 ± 8e-07
343.15 K, 100000 kPa	0.0009802 ± 9e-07
343.15 K, 110000 kPa	0.0009764 ± 1e-06
343.15 K, 120000 kPa	0.0009725 ± 1e-06
343.15 K, 130000 kPa	0.0009689 ± 1.1e-06
343.15 K, 140000 kPa	0.0009655 ± 1.2e-06
353.15 K, 100 kPa	0.001041 ± 3e-07

Cc1ccc2ccccc2c1 [2-methylnaphthalene] + c1ccc2[nH]ccc2c1
[2], 100 kPa, x2 = 0
Settings	specific volume [m3/kg]
303.15 K	0.001001 ± 9e-07
313.15 K	0.001009 ± 1.1e-06
323.15 K	0.001017 ± 1.2e-06
333.15 K	0.001025 ± 1.4e-06
343.15 K	0.001033 ± 1.5e-06
353.15 K	0.001041 ± 1.7e-06

[2], 333.15 K, Constant-volume piezometry, x2 = 0
Settings	specific volume [m3/kg]
100 kPa	0.001025 ± 3e-07
10000 kPa	0.001018 ± 3e-07
20000 kPa	0.001012 ± 4e-07
30000 kPa	0.001007 ± 4e-07
40000 kPa	0.001001 ± 5e-07
50000 kPa	0.0009961 ± 5e-07
60000 kPa	0.0009915 ± 6e-07
70000 kPa	0.0009868 ± 7e-07
80000 kPa	0.0009826 ± 7e-07
90000 kPa	0.0009784 ± 8e-07
100000 kPa	0.0009749 ± 9e-07

c1ccccc1 [benzene]
Settings	specific volume [m3/kg]
[1], 293.15 K, 101.33 kPa	0.001138 ± 2e-07

c1ccc(-c2ccccc2)cc1 [biphenyl]
[1]
Settings	specific volume [m3/kg]
333.15 K, 100 kPa	0.0009985 ± 2e-07
343.15 K, 100 kPa	0.001007 ± 3e-07
353.15 K, 100 kPa	0.001015 ± 3e-07
353.15 K, 10000 kPa	0.001008 ± 3e-07
353.15 K, 20000 kPa	0.001002 ± 4e-07
353.15 K, 30000 kPa	0.0009956 ± 4e-07
363.15 K, 100 kPa	0.001024 ± 3e-07
363.16 K, 100 kPa	0.001024 ± 3e-07
363.16 K, 10000 kPa	0.001016 ± 3e-07
363.16 K, 20000 kPa	0.00101 ± 4e-07
363.16 K, 30000 kPa	0.001003 ± 4e-07
363.16 K, 40000 kPa	0.000997 ± 5e-07
363.16 K, 50000 kPa	0.0009917 ± 5e-07
363.16 K, 60000 kPa	0.0009864 ± 6e-07
363.16 K, 70000 kPa	0.0009815 ± 7e-07

c1ccc(-c2ccccc2)cc1 [biphenyl] + c1ccc2[nH]ccc2c1
Settings	specific volume [m3/kg]
[2], 333.15 K, 100 kPa, Constant-volume piezometry, x2 = 0	0.0009985 ± 2e-07

[2], 100 kPa, x2 = 0
Settings	specific volume [m3/kg]
333.15 K	0.0009985 ± 9e-07
343.15 K	0.001007 ± 1e-06
353.15 K	0.001015 ± 1.1e-06
363.15 K	0.001024 ± 1.2e-06
